Experimental findings from patent US11110105B2, “Compounds, composition and uses thereof for treating cancer” (INSTITUT GUSTAVE ROUSSY, priority 2017, dated 2021) are described below.

One test has as its system MCA205 WT tumor. The experiment in a line: Tumor challenge, MCA205 WT in immunocompetent C57BL/6 mice. Format: in vivo, mouse. As to conditions: 18 mg/kg intraperitoneally, days 5, 10 and 15 (FIG. 11D). The procedure:
(A) Experimental settings. Growth of (B) sarcoma MCA205 or (C) melanoma B16F10 cells that both stably express the globin-SL8-intron construct or (D) MCA205 Wild Type (WT) or (E) B16F10 WT cells that were subcutaneously inoculated on the flank of immunocompetent C57BL/6 mice injected intraperitoneally with 12 mg/kg or 18 mg/kg of isoginkgetin at days 5, 10 and 15 after inoculation. Tumor size was assessed every 3 to 4 days until reaching the established ethical endpoints. Each line represents the tumor size in area (mm^2) of 6 mice in each group. Size in area (mm^2) of (F) MCA205 globin-SL8-intron, (G) B16F10 globin-SL8-intron, (H) MCA205 WT or (I) B16F10 WT tumors subcutaneously inoculated on the flank of immunodeficient Nu/Nu Nude mice injected intraperitoneally with 18 mg/kg of isoginkgetin at days 5, 10 and 15 after inoculation. Data are presented at the day before the endpoints are reached.
(§1) Data are given as mean ±SEM. *P<0.05, **P<0.01, ***P<0.001 (unpaired student t test). […] Tumor size was assessed every 3 to 4 days until reaching the established ethical endpoints. […]
The SL8 peptide has been widely shown to be highly immunogenic in vivo. […] At days 5, 10 and 15 after tumor inoculation, the mice were injected intraperitoneally with a define dose of isoginkgetin, and the tumor growth was monitored (FIG. 9A). […]

Test [1] relates to mouse sarcoma cell line MCA205. The experiment in a line: B3Z SL8-specific T-cell activation assay, MCA205. Format: cell-based. As to conditions: MCA205, Globin-intron-SL8. The method, then:
(§2) B3Z SL8-specific T-cell activation after co-culture with (A) human melanoma A375, human lung carcinoma A549 or normal human lung fibroblast MRC5 cell lines, all transiently expressing the intron-derived SL8 peptide and the H2-K^b molecules and treated upstream with 2,5 μM or 6,25 μM isoginkgetin for 18 hours; or with (B) mouse sarcoma MCA205 or mouse melanoma B16F10 cell lines both transiently expressing the intron-derived SL8 peptide and treated upstream with 6,25 μM, 15 μM or 25 μM isoginkgetin for 18 hours. […]
as §1
(§3) MCA205 and B16F10 mouse cell lines are transfected with the plasmid YFP-Globin-SL8-intron or with the PCDNA3 empty plasmid (negative control) with the transfection reagent jetPRIME (Ozyme) or GeneJuice (Millipore) respectively according to each manufacturer protocol. […] Finally, the β-galactosidase activity is measured using the FLUOstar OPTIMA (BMG LABTECH Gmbh, Offenburg, Germany). Results are expressed as mean ±SEM. *P<0.05, **P<0.01, ***P<0.001 (unpaired student t test).

Test [2] concerns splicing of the Globin-SL8-intron gene product in MCA205 cells. Put plainly: qRT-PCR of unspliced/spliced globin-SL8-intron RNA, MCA205. Format: cell-based, mouse. As to conditions: 15 μM isoginkgetin, 35 μM IP2 or 35 μM M2P2, 48 hours. The procedure: RNA was extracted and qRT-PCR was performed with primers amplifying the unspliced (intron) and the spliced (exon) globin-SL8-intron RNA. Data are given as mean ±SEM of the ratio of 2^−ΔΔCt intron and 2^−ΔΔCt exon of at least three independent experiments. […] Data are express as mean ±SEM of the percentage of viable cells compared to the control condition of at least three independent experiments. *P<0.05, **P<0.01, ***P<0.001 (unpaired student t test).
In addition, it has been shown that cancer cells can acquire deficiencies in the splicing machinery that benefit their growth, for example by preventing the expression of tumor suppressor genes.
For orientation: Quantitative PCR measures a nucleic acid by following its amplification.

Test [3] concerns mouse melanoma cell line B16F10. The experiment in a line: B3Z SL8-specific T-cell activation assay, B16F10. It is filed as cell-based. The following applies: B16F10, Globin-intron-SL8; 15 μM or 35 μM. The method, then: as §2, §1, §3

Entries after “also recorded” stand apart in the source; their conditions may differ.

For `COc1ccc(-c2cc(=O)c3c(OC)cc(OP(=O)([O-])[O-])c(-c4cc(-c5cc(=O)c6c(OC)cc(OP(=O)([O-])[O-])cc6o5)ccc4OC)c3o2)cc1.[Na+].[Na+].[Na+].[Na+]` [IM2P2], the tumor growth result in the test with MCA205 WT tumor was “did not impact tumor growth”. The “intron-SL8-derived antigen presentation (B3Z activation)” value was “decreases its presentation” in test [1] (15 μM or 35 μM) and “does not impact it” in test [3]. In addition, the “PTPs-dependent (intron-derived SL8) antigen presentation (B3Z activation)” value in test [1] (15 μM, 25 μM or 35 μM) is “does not increase the presentation”. In test [2], the “splicing of Globin-SL8-intron RNA (ratio unspliced/spliced, qRT-PCR)” value is given as “has a strong impact on splicing; also recorded: strongly inhibits the splicing”.
